# Data from patent US12209087B2, “AKT1 modulators” (Alterome Therapeutics, Inc., priority 2022, dated 2025).
# Molecular target: T1, full length AKT E17K (Homo sapiens, UniProt P31749, E17K)
# T1 construct: host or cells: HEK-293 (ATCC CRL-1573)
# Experiment: NanoBRET Target Engagement (TE) Assay
# Assay type: cell-based
# Conditions: competitive displacement of tracer in cells, read-out: AKT1 E17K IC50
# Procedure, shortened: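 Compound and tracer incubated 2 h before luminescence at donor 450 nm and acceptor 600 nm, with extracellular signal inhibited. EC50 by sigmoidal variable-slope regression.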
# T1 sequence (P31749 whole entry E17K): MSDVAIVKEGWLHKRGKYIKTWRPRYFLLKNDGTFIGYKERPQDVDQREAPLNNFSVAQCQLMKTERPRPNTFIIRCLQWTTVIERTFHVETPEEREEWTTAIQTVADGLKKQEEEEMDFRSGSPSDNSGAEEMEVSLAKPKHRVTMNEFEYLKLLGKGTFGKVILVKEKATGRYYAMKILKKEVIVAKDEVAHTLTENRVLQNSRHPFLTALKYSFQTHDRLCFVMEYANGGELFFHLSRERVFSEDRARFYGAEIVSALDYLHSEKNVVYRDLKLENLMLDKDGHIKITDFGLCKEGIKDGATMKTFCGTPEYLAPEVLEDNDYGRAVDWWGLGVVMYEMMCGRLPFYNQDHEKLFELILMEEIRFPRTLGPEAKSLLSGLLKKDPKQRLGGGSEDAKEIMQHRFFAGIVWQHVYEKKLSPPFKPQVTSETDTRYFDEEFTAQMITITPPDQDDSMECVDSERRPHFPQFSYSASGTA
row,SMILES,IC50
1,"Cn1nncc1-c1ccc2nc(-c3cccnc3N)n(-c3ccc(CN4CCC(Nc5ccnc(C#N)n5)CC4)cc3)c2n1 [Example 564, 4-((1-(4-(2-(2-Aminopyridin-3-yl)-5-(1-methyl-1H-1,2,3-triazol-5-yl)-3H-imidazo[4,5-b]pyridin-3-yl)benzyl)piperidin-4-yl)amino)pyrimidine-2-carbonitrile]",15 to 60 nM
2,"Cc1cc2nc(-c3cccnc3N)n(-c3ccc(CN4CCC(Nc5ccnc(C#N)n5)CC4)cc3)c2nc1-c1ccc(F)cc1 [Example 499, 4-((1-(4-(2-(2-aminopyridin-3-yl)-5-(4-fluorophenyl)-6-methyl-3H-imidazo[4,5-b]pyridin-3-yl)benzyl)piperidin-4-yl)amino)pyrimidine-2-carbonitrile]",< 15 nM
3,"N#Cc1nccc(N2CC3(CN(Cc4ccc(-n5c(-c6cccnc6N)nc6ccc(-c7ccccc7)nc65)cc4)C3)C2)n1 [Example 366, 4-(6-(4-(2-(2-Aminopyridin-3-yl)-5-phenyl-3H-imidazo[4,5-b]pyridin-3-yl)benzyl)-2,6-diazaspiro[3.3]heptan-2-yl)pyrimidine-2-carbonitrile]",< 15 nM
4,"CC(=O)Nc1cccc(-c2ccc3nc(-c4cccnc4N)n(-c4ccc(CN5CCC(Nc6ccnc(C#N)n6)CC5)cc4)c3n2)c1 [Example 440, N-(3-(2-(2-Aminopyridin-3-yl)-3-(4-((4-((2-cyanopyrimidin-4-yl)amino)piperidin-1-yl)methyl)phenyl)-3H-imidazo[4,5-b]pyridin-5-yl)phenyl)acetamide]",< 15 nM
5,"N#Cc1nccc(NC2CCN(Cc3ccc(-n4c(-c5cccnc5N)nc5ccc(-c6cnn(C7CC7)c6)nc54)cc3)CC2)n1 [Example 555, 4-((1-(4-(2-(2-Aminopyridin-3-yl)-5-(1-cyclopropyl-1H-pyrazol-4-yl)-3H-imidazo[4,5-b]pyridin-3-yl)benzyl)piperidin-4-yl)amino)pyrimidine-2-carbonitrile]",< 15 nM
6,"N#Cc1ncnc(NC2CCN(Cc3ccc(-n4c(-c5cccnc5N)nc5ccc(-c6ccccc6)nc54)cc3)CC2)n1 [Example 391, 4-((1-(4-(2-(2-Aminopyridin-3-yl)-5-phenyl-3H-imidazo[4,5-b]pyridin-3-yl)benzyl)piperidin-4-yl)amino)-1,3,5-triazine-2-carbonitrile]",< 15 nM
7,"N#Cc1nccc(N2CC3(CN(Cc4ccc(-n5c(-c6cccnc6N)nc6ccc(-c7ccc(F)cc7)nc65)cc4)C3)C2)n1 [Example 447, 4-(6-(4-(2-(2-Aminopyridin-3-yl)-5-(4-fluorophenyl)-3H-imidazo[4,5-b]pyridin-3-yl)benzyl)-2,6-diazaspiro[3.3]heptan-2-yl)pyrimidine-2-carbonitrile]",< 15 nM
8,"Cc1ccc(-c2ccc3nc(-c4cccnc4N)n(-c4ccc(CN5CCC(Nc6ccnc(C#N)n6)CC5)cc4)c3n2)cc1 [Example 529, 4-((1-(4-(2-(2-Aminopyridin-3-yl)-5-(p-tolyl)-3H-imidazo[4,5-b]pyridin-3-yl)benzyl)piperidin-4-yl)amino)pyrimidine-2-carbonitrile]",< 15 nM
9,"N#Cc1nccc(NN2CCN(Cc3ccc(-n4c(-c5cccnc5N)nc5ccc(-c6ccccc6)nc54)cc3)CC2)n1 [Example 426, 4-((4-(4-(2-(2-Aminopyridin-3-yl)-5-phenyl-3H-imidazo[4,5-b]pyridin-3-yl)benzyl)piperazin-1-yl)amino)pyrimidine-2-carbonitrile]",< 15 nM
10,"C#Cc1ccc2nc(-c3cccnc3N)n(-c3ccc(CN4CCC(Nc5ccnc(C#N)n5)CC4)cc3)c2n1 [Example 513, 4-((1-(4-(2-(2-Aminopyridin-3-yl)-5-ethynyl-3H-imidazo[4,5-b]pyridin-3-yl)benzyl)piperidin-4-yl)amino)pyrimidine-2-carbonitrile]",< 15 nM
11,"N#Cc1nccc(NC2CCN(Cc3ccc(-n4c(-c5cccnc5N)nc5nc(C#N)c(C#N)nc54)cc3)CC2)n1 [Example 556, 2-(2-Aminopyridin-3-yl)-1-(4-((4-((2-cyanopyrimidin-4-yl)amino)piperidin-1-yl)methyl)phenyl)-1H-imidazo[4,5-b]pyrazine-5,6-dicarbonitrile]",600 to 10000 nM
12,"Cn1cc(-c2ccc3nc(-c4cccnc4N)n(-c4ccc(CN5CCN(c6ccnc(C#N)n6)CC5)cc4)c3n2)ccc1=O [Example 348, 4-(4-(4-(2-(2-Aminopyridin-3-yl)-5-(1-methyl-6-oxo-1,6-dihydropyridin-3-yl)-3H-imidazo[4,5-b]pyridin-3-yl)benzyl)piperazin-1-yl)pyrimidine-2-carbonitrile]",60 to 600 nM
13,"[2H]C([2H])([2H])N(c1ccnc(C#N)n1)C1CCN(Cc2ccc(-n3c(-c4cccnc4N)nc4ccc(-c5ccc(F)cc5)nc43)cc2)CC1 [Example 441, 4-((1-(4-(2-(2-Aminopyridin-3-yl)-5-(4-fluorophenyl)-3H-imidazo[4,5-b]pyridin-3-yl)benzyl)piperidin-4-yl)(methyl-d3)amino)pyrimidine-2-carbonitrile]",< 15 nM
14,"N#Cc1nccc(N2CC3(CCN(Cc4ccc(-n5c(-c6cccnc6N)nc6ccc(-c7ccccc7)nc65)cc4)CC3)C2)n1 [Example 361, 4-(7-(4-(2-(2-Aminopyridin-3-yl)-5-phenyl-3H-imidazo[4,5-b]pyridin-3-yl)benzyl)-2,7-diazaspiro[3.5]nonan-2-yl)pyrimidine-2-carbonitrile]",< 15 nM

# Same assay, conditions: competitive tracer displacement in living cells, read-out: AKT1 E17K IC50
row,SMILES,IC50
1,"N#Cc1ccnc(NCc2ccc(-n3c(-c4cccnc4N)nc4cccnc43)cc2)n1 [Example 134, 2-((4-(2-(2-Aminopyridin-3-yl)-3H-imidazo[4,5-b]pyridin-3-yl)benzyl)amino)pyrimidine-4-carbonitrile]",600 to 10000 nM
2,"N#Cc1cccc(NC2CCN(Cc3ccc(-n4c(-c5cccnc5N)nc5ccc(-c6ccccc6)nc54)cc3)CC2)n1 [Example 86, 6-((1-(4-(2-(2-Aminopyridin-3-yl)-5-phenyl-3H-imidazo[4,5-b]pyridin-3-yl)benzyl)piperidin-4-yl)amino)picolinonitrile]",60 to 600 nM
3,"N#Cc1nccc(NC2CCN(Cc3ccc(-n4c(-c5cccnc5N)nc5ccc(C(N)=O)nc54)cc3)CC2)n1 [Example 288, 2-(2-aminopyridin-3-yl)-3-(4-((4-((2-cyanopyrimidin-4-yl)amino)piperidin-1-yl)methyl)phenyl)-3H-imidazo[4,5-b]pyridine-5-carboxamide]",15 to 60 nM
4,"N#Cc1ccnc(N2CCN(Cc3ccc(-n4c(-c5cccnc5N)nc5ccc(-c6ccccc6)nc54)cc3)CC2)c1 [Example 66, 2-(4-(4-(2-(2-Aminopyridin-3-yl)-5-phenyl-3H-imidazo[4,5-b]pyridin-3-yl)benzyl)piperazin-1-yl)isonicotinonitrile]",600 to 10000 nM
5,"N#Cc1ccnc(NC2C3CCC2CN(Cc2ccc(-n4c(-c5cccnc5N)nc5ccc(-c6ccccc6)nc54)cc2)C3)n1 (stereo not shown) [Example 231, 2-((3-(4-(2-(2-Aminopyridin-3-yl)-5-phenyl-3H-imidazo[4,5-b]pyridin-3-yl)benzyl)-3-azabicyclo[3.2.1]octan-8-yl)amino)pyrimidine-4-carbonitrile]",600 to 10000 nM
6,"N#Cc1nccc(N2CCN(Cc3ccc(-n4c(-c5cccnc5N)nc5ccc(-c6ccccc6C#N)nc54)cc3)CC2)n1 [Example 293, 4-(4-(4-(2-(2-Aminopyridin-3-yl)-5-(2-cyanophenyl)-3H-imidazo[4,5-b]pyridin-3-yl)benzyl)piperazin-1-yl)pyrimidine-2-carbonitrile]",< 15 nM
7,"N#Cc1cc(N2CCN(Cc3ccc(-n4c(-c5cccnc5N)nc5ccc(-c6cccc(F)c6)nc54)cc3)CC2)ncn1 [Example 310, 6-(4-(4-(2-(2-Aminopyridin-3-yl)-5-(3-fluorophenyl)-3H-imidazo[4,5-b]pyridin-3-yl)benzyl)piperazin-1-yl)pyrimidine-4-carbonitrile]",< 15 nM
8,"N#Cc1nccc(N2CCN(Cc3ccc(-n4c(-c5cccnc5N)nc5ccc(-c6ccccc6)nc54)cc3)CC23CC3)n1 [Example 198, 4-(7-(4-(2-(2-Aminopyridin-3-yl)-5-phenyl-3H-imidazo[4,5-b]pyridin-3-yl)benzyl)-4,7-diazaspiro[2.5]octan-4-yl)pyrimidine-2-carbonitrile]",15 to 60 nM
9,"N#Cc1ccc(C(=O)N2CCN(Cc3ccc(-n4c(-c5cccnc5N)nc5cccnc54)cc3)CC2)cn1 [Example 102, 5-(4-(4-(2-(2-Aminopyridin-3-yl)-3H-imidazo[4,5-b]pyridin-3-yl)benzyl)piperazine-1-carbonyl)picolinonitrile]",600 to 10000 nM
10,"N#Cc1cc(N2CCN(Cc3ccc(-n4c(-c5cccnc5N)nc5cccnc54)cc3)CC2)ncn1 [Example 21, 6-(4-(4-(2-(2-Aminopyridin-3-yl)-3H-imidazo[4,5-b]pyridin-3-yl)benzyl)piperazin-1-yl)pyrimidine-4-carbonitrile]",60 to 600 nM
11,"N#Cc1cc(C(=O)NCc2ccc(-n3c(-c4cccnc4N)nc4cc(-c5ccccc5)cnc43)cc2)ccn1 [Example 169, N-(4-(2-(2-Aminopyridin-3-yl)-6-phenyl-3H-imidazo[4,5-b]pyridin-3-yl)benzyl)-2-cyanoisonicotinamide]",60 to 600 nM
12,"N#Cc1cnccc1C(=O)N1CCN(Cc2ccc(-n3c(-c4cccnc4N)nc4cccnc43)cc2)CC1 [Example 154, 4-(4-(4-(2-(2-Aminopyridin-3-yl)-3H-imidazo[4,5-b]pyridin-3-yl)benzyl)piperazine-1-carbonyl)nicotinonitrile]",600 to 10000 nM
13,"N#Cc1cc(N2CCN(Cc3ccc(-n4c(-c5cccnc5N)nc5ccc(-c6ccccc6F)nc54)cc3)CC2)ncn1 [Example 314, 6-(4-(4-(2-(2-Aminopyridin-3-yl)-5-(2-fluorophenyl)-3H-imidazo[4,5-b]pyridin-3-yl)benzyl)piperazin-1-yl)pyrimidine-4-carbonitrile]",< 15 nM
14,"N#Cc1nccc(NC2CCN(Cc3ccc(-n4c(-c5cccnc5N)nc5ccc(C6=CCCCC6)nc54)cc3)CC2)n1 [Example 263, 4-((1-(4-(2-(2-Aminopyridin-3-yl)-5-(cyclohex-1-en-1-yl)-3H-imidazo[4,5-b]pyridin-3-yl)benzyl)piperidin-4-yl)amino)pyrimidine-2-carbonitrile]",15 to 60 nM
